From the supplement of paper PMC8149375
Values joined by “and” are separate entries in the source; they are usually repeats but may differ in a detail not shown here. Equal entries are not always repeated.

Tests used:
Conditions in all cases: treatment: drug + dasatinib (fixed dose, not stated); 5 days
[1] = test system: 769-P; assay: AUC of dose-response viability curve, drug + dasatinib, normalised to DMSO (arbitrary (AUC of normalised viability)); higher = less growth inhibition
Experimental: (§1)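 Primary HTS combination arm: 8 RCC cell lines treated with 8 doses (up to 10 uM) of each library drug plus a fixed dose of dasatinib (dose not stated) for 5 days; viability read by CellTiter-Glo and normalised to DMSO. GI50 was fitted with XLfit, AUC is the area under the dose-response curve, and minimum viability is the lowest fraction of DMSO viability across doses.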

[2] = test system: ACHN; assay: as above
Experimental: as §1

[3] = test system: CAKI-1; assay: as above
Experimental: as §1

[4] = test system: 786-O; assay: as above
Experimental: as §1

[5] = test system: UO-31; assay: as above
Experimental: as §1

[6] = test system: A498; assay: as above
Experimental: as §1

[7] = test system: SN12C; assay: as above
Experimental: as §1

[8] = test system: TK-10; assay: as above
Experimental: as §1

[9] = test system: 769-P; assay: GI50 of drug in presence of dasatinib; higher = less potent
Experimental: as §1

[10] = test system: ACHN; assay: as above
Experimental: as §1

[11] = test system: 786-O; assay: as above
Experimental: as §1

[12] = test system: UO-31; assay: as above
Experimental: as §1

[13] = test system: A498; assay: as above
Experimental: as §1

[14] = test system: SN12C; assay: as above
Experimental: as §1

[15] = test system: TK-10; assay: as above
Experimental: as §1

[16] = test system: 769-P; assay: minimum viability across doses, drug + dasatinib, relative to DMSO (fraction); higher = less growth inhibition
Experimental: as §1

[17] = test system: ACHN; assay: as above
Experimental: as §1

[18] = test system: CAKI-1; assay: as above
Experimental: as §1

[19] = test system: 786-O; assay: as above
Experimental: as §1

[20] = test system: UO-31; assay: as above
Experimental: as §1

[21] = test system: A498; assay: as above
Experimental: as §1

[22] = test system: SN12C; assay: as above
Experimental: as §1

[23] = test system: TK-10; assay: as above
Experimental: as §1

[24] = test system: CAKI-1; assay: GI50 of drug in presence of dasatinib; higher = less potent
Experimental: as §1

Row | Compound | AUC of dose-response viability curve [1] | AUC of dose-response viability curve [2] | AUC of dose-response viability curve [3] | AUC of dose-response viability curve [4] | AUC of dose-response viability curve [5] | AUC of dose-response viability curve [6] | AUC of dose-response viability curve [7] | AUC of dose-response viability curve [8] | GI50 of drug [9] | GI50 of drug [10] | GI50 of drug [11] | GI50 of drug [12] | GI50 of drug [13] | GI50 of drug [14] | GI50 of drug [15] | minimum viability across doses [16] | minimum viability across doses [17] | minimum viability across doses [18] | minimum viability across doses [19] | minimum viability across doses [20] | minimum viability across doses [21] | minimum viability across doses [22] | minimum viability across doses [23] | GI50 of drug [24]
1 | CCOc1ccn(-c2ccc(F)cc2)c(=O)c1C(=O)Nc1ccc(Oc2ccnc(N)c2Cl)c(F)c1 + Cc1nc(Nc2ncc(C(=O)Nc3c(C)cccc3Cl)s2)cc(N2CCN(CCO)CC2)n1 [dasatinib] | 2.36 | 1.66 | 1.92 | 1.85 | 3.54 | 2.83 | 2.27 | 2.43 | > 10000 nM | 642 nM | 1570 nM | > 10000 nM | > 10000 nM | > 10000 nM | > 10000 nM | 0.495 | 0.247 | 0.118 | 0.35 | 0.695 | 0.61 | 0.528 | 0.634 | 
2 | CO[C@@H](C(=O)N1Cc2[nH]nc(NC(=O)c3ccc(N4CCN(C)CC4)cc3)c2C1)c1ccccc1 + Cc1nc(Nc2ncc(C(=O)Nc3c(C)cccc3Cl)s2)cc(N2CCN(CCO)CC2)n1 [dasatinib] | 2.12 and 2.33 | 1.37 and 1.42 | 1.46 | 1.57 and 1.49 | 2.67 and 3.57 | 2.44 and 2.82 | 1.95 and 1.86 | 2.19 and 2.06 | 2950 nM and 3100 nM | 18.2 nM and 153 nM | 184 nM and 231 nM | 3120 nM and 3920 nM | 1310 nM and 2720 nM | 491 nM and 366 nM | 1560 nM and 1030 nM | 0.346 and 0.337 | 0.0933 and 0.0842 | 0.0301 and 0.0221 |  | 0.0249 and 0.0141 | 0.36 and 0.384 | 0.159 and 0.145 | 0.146 and 0.131 | 170 nM and 198 nM
3 | CC(=O)Nc1cccc(-n2c(=O)n(C3CC3)c(=O)c3c(Nc4ccc(I)cc4F)n(C)c(=O)c(C)c32)c1 + Cc1nc(Nc2ncc(C(=O)Nc3c(C)cccc3Cl)s2)cc(N2CCN(CCO)CC2)n1 [dasatinib] | 1.68 | 1.2 | 1.29 | 1.48 | 1.88 | 1.96 | 1.58 | 1.58 | 217 nM | 8.4 nM | 21.7 nM | 159 nM |  | 86.2 nM | 78.7 nM | 0.196 | 0.216 | 0.0991 | 0.321 | 0.0585 | 0.306 | 0.243 | 0.235 | 54.2 nM
4 | Cc1cnc(Nc2ccc(N3CCN(C)CC3)cc2)nc1Nc1cccc(S(=O)(=O)NC(C)(C)C)c1 + Cc1nc(Nc2ncc(C(=O)Nc3c(C)cccc3Cl)s2)cc(N2CCN(CCO)CC2)n1 [dasatinib] | 1.99 and 2 | 1.25 and 1.24 | 1.56 and 1.46 | 1.88 and 1.72 | 3.14 and 3 | 3.36 and 2.9 | 1.85 and 1.91 | 1.73 and 1.65 | 878 nM and 719 nM | 79.9 nM and 106 nM | 497 nM and 187 nM | 903 nM and 821 nM | 4270 nM and 3210 nM | 746 nM and 690 nM | 336 nM and 309 nM | 0.0284 and 0.0197 | 0.00194 and 0.00321 | 0.00497 and 0.00392 | 0.0113 and 0.0115 | 0.0085 and 0.0129 | 0.176 and 0.14 |  | 0.00138 and 0.00232 | 271 nM and 152 nM
5 | O=C(NC[C@H](O)CO)c1ccncc1Nc1ccc(I)cc1F + Cc1nc(Nc2ncc(C(=O)Nc3c(C)cccc3Cl)s2)cc(N2CCN(CCO)CC2)n1 [dasatinib] | 1.81 | 1.28 | 1.52 | 1.87 | 2.33 | 2.28 | 1.9 | 1.9 | 455 nM | 10.5 nM | 89.8 nM | 563 nM |  | 307 nM | 296 nM | 0.212 | 0.216 | 0.0863 | 0.394 | 0.0714 | 0.31 | 0.227 | 0.203 | 139 nM
6 | Cc1ccc(C(=O)Nc2ccc(CN3CCN(C)CC3)c(C(F)(F)F)c2)cc1C#Cc1cnc2cccnn12 + Cc1nc(Nc2ncc(C(=O)Nc3c(C)cccc3Cl)s2)cc(N2CCN(CCO)CC2)n1 [dasatinib] |  |  |  |  |  |  |  |  | 624 nM | 68.8 nM | 402 nM | 311 nM | 935 nM | 230 nM | 390 nM |  |  |  |  |  |  |  |  | 127 nM
7 | C[C@@H](Oc1cc(-n2cnc3ccc(CN4CCN(C)CC4)cc32)sc1C(N)=O)c1ccccc1C(F)(F)F + Cc1nc(Nc2ncc(C(=O)Nc3c(C)cccc3Cl)s2)cc(N2CCN(CCO)CC2)n1 [dasatinib] | 1.14 | 1.22 | 1.33 | 0.653 | 1.32 | 1.97 | 1.62 | 2.01 | 31 nM | 21.2 nM | 10.7 nM | 77.4 nM |  | 89.1 nM | 265 nM | 0.0347 | 0.0897 | 0.0912 | 0.00468 | 0.00496 | 0.384 | 0.155 | 0.171 | 38.1 nM
8 | Cc1cc(C(=O)NOCCO)c(Nc2ccc(I)cc2F)n(C)c1=O [AZD8330] + Cc1nc(Nc2ncc(C(=O)Nc3c(C)cccc3Cl)s2)cc(N2CCN(CCO)CC2)n1 [dasatinib] | 1.49 | 0.912 | 1.21 | 1.67 | 1.9 | 1.77 | 1.5 | 1.64 | 69.4 nM | < 3 nM | 54.5 nM |  |  | 60.1 nM | 108 nM | 0.219 | 0.18 | 0.102 | 0.323 | 0.0965 | 0.318 | 0.212 | 0.262 | 56.5 nM
9 | COc1cc(Nc2c(C#N)cnc3cc(OCCCN4CCN(C)CC4)c(OC)cc23)c(Cl)cc1Cl [Bosutinib (SKI-606)] + Cc1nc(Nc2ncc(C(=O)Nc3c(C)cccc3Cl)s2)cc(N2CCN(CCO)CC2)n1 [dasatinib] | 2.03 | 1.45 | 1.85 | 2.37 | 2.22 | 2.84 | 2.24 | 2.26 | 1070 nM | 56.8 nM | 2190 nM |  | 3350 nM | 1330 nM | 1020 nM | 0.105 | 0.103 | 0.0492 | 0.0253 | 0.0097 | 0.294 | 0.199 | 0.0934 | 501 nM
10 | COc1cc(Nc2ncc3c(n2)-c2ccc(Cl)cc2C(c2c(F)cccc2OC)=NC3)ccc1C(=O)O [MLN8237 (Alisertib)] + Cc1nc(Nc2ncc(C(=O)Nc3c(C)cccc3Cl)s2)cc(N2CCN(CCO)CC2)n1 [dasatinib] | 1.61 | 1.37 | 1.41 | 1.44 | 3.06 | 2.41 | 1.89 | 2.39 | 95.7 nM | 25 nM | 60.2 nM | 5320 nM |  | 331 nM | 2740 nM | 0.231 | 0.16 | 0.0592 | 0.145 | 0.374 | 0.353 | 0.353 | 0.392 | 74.9 nM
11 | CCOc1cc2ncc(C#N)c(Nc3ccc(OCc4ccccn4)c(Cl)c3)c2cc1NC(=O)/C=C/CN(C)C [Neratinib (HKI-272)] + Cc1nc(Nc2ncc(C(=O)Nc3c(C)cccc3Cl)s2)cc(N2CCN(CCO)CC2)n1 [dasatinib] | 1.59 | 0.82 | 1.44 | 1.88 | 2.08 | 3.02 | 1.74 | 1.57 | 102 nM | 4.66 nM | 611 nM |  | 6990 nM | 215 nM | 74.2 nM | 0.0611 | 0.0762 | 0.0888 | 0.298 | 0.0167 | 0.51 | 0.0625 | 0.228 | 114 nM
12 | CS(=O)(=O)O.O=C(Nc1cccc(Cl)c1)Nc1ncc(CCNc2ncnc3ccsc23)s1 [SNS-314] + Cc1nc(Nc2ncc(C(=O)Nc3c(C)cccc3Cl)s2)cc(N2CCN(CCO)CC2)n1 [dasatinib] | 1.74 | 1.48 | 1.38 | 1.54 | 3.06 | 2.61 | 1.97 | 2.41 | 155 nM | 61.8 nM | 48.1 nM | 6020 nM |  | 634 nM | 3780 nM | 0.217 | 0.144 | 0.107 | 0.123 | 0.372 | 0.442 | 0.259 | 0.362 | 41.5 nM
13 | Cn1c(=O)c(F)c(Nc2ccc(I)cc2F)c2c(=O)n(C[C@@H](O)CO)cnc21 [TAK-733] + Cc1nc(Nc2ncc(C(=O)Nc3c(C)cccc3Cl)s2)cc(N2CCN(CCO)CC2)n1 [dasatinib] | 1.73 | 1.21 | 1.2 | 1.96 | 1.88 | 1.92 | 1.51 | 1.71 | 192 nM | < 3 nM | 452 nM | 200 nM |  | 82.5 nM | 138 nM | 0.201 | 0.222 | 0.0816 | 0.36 | 0.0313 | 0.355 | 0.192 | 0.199 | 29.7 nM
14 | CCC(=O)N1CCN(c2ccc(-n3c(=O)ccc4cnc5ccc(-c6cnc7ccccc7c6)cc5c43)cc2C(F)(F)F)CC1 [Torin 1] + Cc1nc(Nc2ncc(C(=O)Nc3c(C)cccc3Cl)s2)cc(N2CCN(CCO)CC2)n1 [dasatinib] | 1.06 | 0.722 | 0.983 | 0.988 | 1.5 | 1.53 | 1.16 | 1.13 | 21.8 nM | 4.88 nM | 17.4 nM | 77 nM | 73.9 nM | 26.6 nM |  | 0.0737 | 0.0484 | 0.0196 | 0.0106 | 0.00689 | 0.025 | 0.0936 | 0.0693 | 27.7 nM
15 | Nc1ccc(-c2ccc3ncc4ccc(=O)n(-c5cccc(C(F)(F)F)c5)c4c3c2)cn1 [Torin 2] + Cc1nc(Nc2ncc(C(=O)Nc3c(C)cccc3Cl)s2)cc(N2CCN(CCO)CC2)n1 [dasatinib] | 0.828 | 0.382 | 0.756 | 0.422 | 0.727 | 0.961 | 0.777 | 0.828 | 11.2 nM | < 3 nM | < 3 nM | 14.9 nM | 22.6 nM | 6.44 nM |  | 0.0396 | 0.033 | 0.00828 | 0.00374 | 0.00805 | 0.0422 | 0.0283 | 0.0129 | 12.3 nM
